Earlier results, collected in patent publication US8183365B2, “Synthetic method for ceratamine A and B and analogs thereof” (The Ohio State University, priority 2009, dated 2012).

Conditions: cell-based assay; natural products isolated from sponge Pseudoceratina sp.

| Molecule | antimitotic activity |
| --- | --- |
| CNc1nc2ccn(C)c(=O)c(Cc3cc(Br)c(OC)c(Br)c3)c-2n1 [ceratamine A, Ceratamine A] | possess antimitotic activity |
| Ceratamine B | possess antimitotic activity |
